Literature values in patent US12400737B2, “Methods of classifying diffuse large B-cell lymphoma” (CELGENE CORPORATION, priority 2018, dated 2025).

Columns and labels:
[1] = tested on: diffuse large B-cell lymphoma (DLBCL); settings: background statement
[2] = tested on: acute myeloid leukemia (AML); settings: administered alone

Nc1cccc2c1CN(C1CCC(=O)NC1=O)C2=O (centres unmarked) [lenalidomide, 3-(4-amino-1-oxo-1,3-dihydro-isoindol-2-yl)-piperidine-2,6-dione]
single-agent activity in DLBCL [1]: significant single-agent activity

CT-011: anti-PD-1 antibody, a humanized antibody
response in treating AML at relapse [2]: failed to show response
